From US10736913B1, “Use of inosine for cancer immunotherapy” (IMMUNOSPARKLE BIOSCIENCE LLC, priority 2019, dated 2020)
“Also recorded” adds a separate entry of the source.

Tests used:
[1] = test system: H2k1, H2d1, Stat1, Stat3, Irf1 mRNA in B16 cells; assay: Reverse transcription quantitative PCR of antigen presentation-related and IFN signaling genes; type: cell-based, murine; settings: inosine at 500
Method: Tumor cells cDNA was prepared using 1 μg RNA with the qScript cDNA Synthesis Kit (Bio-Rad). SYBR green-based qPCR was performed using murine primers to H2k1, H2d1, Stat1, Stat3, and Irf1. Relative copy number was determined by calculating the fold-change difference in the gene of interest relative to 18sRNA (ΔCt=Ct gene of interest−Ct 18sRNA) and reported as relative mRNA expression (ΔΔCt=2^−(ΔCt sample−ΔCt control)) or fold change. qPCR was performed on an Applied Biosystems 7300 machine.

4T1 tumors = assay: 4T1 breast cancer tumor model in mice (tumor volume, weight); type: in vivo; settings: 4T1 tumor-bearing Balb/c mice; inosine 400 mg/kg/day oral day 4 to 21; anti-CTLA4 100 μg + anti-PD-1 200 μg i.p. days 7, 10, 13, 16
Method: 4T1 cells were injected into the mammary fat pad of eight-week-old female Balb/c mice (2×10^5/mouse). […] Results are shown as mean±SEM. (*** indicates P<0.001).
4T1 cells were injected into the mammary fat pad of eight-week-old female Balb/c mice (2×10^5/mouse). […] Results are shown as mean±SEM. (** indicates P<0.01)

[2] = background; cited from earlier work
B16 tumor cells [3] = assay: MTT cell proliferation assay; type: cell-based, murine; settings: B16 cells in vitro; inosine 10, 50, 200 μM; 0-96 h
Method: MTT assays were used to determine the cell viability of B16 tumor cells treated with control vehicle; the concentration of inosine administered is indicated, where “Ino-10” means 10 μM Inosine; “Ino-50” means 50 μM Inosine and “Ino-200” means 200 μM Inosine.
Cell proliferation ability was examined at 0, 24, 48, 72 h and 96 h using a Cell Proliferation Reagent Kit I (MTT; Sigma) according to the manufacturer's instruction. Cells were seeded in a 96-well plate in triplicate at a concentration of 2×10^3 cells/well. On the indicated day, the medium was removed and the MTT solution was added to the wells. Four hours later, DMSO was added and the cells were further incubated for 10 min with gentle shaking at 37° C. Finally, the optical density of each well was measured using a microplate reader at 550 nm.

[4] = test system: CD4+ and CD8+ T cells in B16 tumors; assay: Flow cytometry of tumor-infiltrating T lymphocytes in B16 tumors; type: in vivo, C57BL/6 mice; settings: n=5 tumors
Method: Tumors from the indicated treatment group were mechanically minced for the isolation of infiltrating lymphocytes. Cells were counted and stained for flow cytometry to determine the percentage of CD4^+ and CD8^+ T lymphocytes in total CD45^+ immune cells.
Results are shown as mean±SEM (* P<0.05; ** P<0.01) and statistics were calculated using the unpaired t-test with Welch's correction.
Mouse tumor samples were minced with scissors before incubation with dissociation buffer (2 mg/ml collagenase type A, 0.02 mg/ml DNase in RPMI1640 containing 5% FBS, PenStrep) with agitation at 37° C. for 45 min. Tumor samples were homogenized by repeated pipetting and filtered through a 70-μm nylon filter (BD Biosciences) in RPMI supplemented with 10% FBS to generate single-cell suspensions. Cell suspensions were washed once with complete RPMI. After lysis of red blood cells, single-cell suspensions were blocked with anti-CD16/32 (Biolegend) for 20 min on ice and then incubated with appropriate antibodies for 30 min on ice: anti-CD45-APC-Cy7, CD3-FITC, CD8-PercP-Cy5.5, CD4-PE. Dead cells and doublets were excluded on the basis of forward and side scatter and Fixable Viability Dye eFluor 450 (eBioscience). Flow cytometry was performed on FACSCanto II (BD Biosciences), and data were analyzed using FlowJo (TreeStar).

B16-GM tumors = assay: B16-GM metastatic melanoma tumor model in mice (tumor volume, weight, lung metastasis, survival)
Method: B16-GM cells were injected subcutaneously into eight-week-old female C57BL/6 mice (2×10^5/mouse). Anti-CTLA4 antibody (100 μg per mouse) and anti-PD-1 antibody (200 μg per mouse) were injected i.p on days 7, 10, 13 and 16. 400 mg/kg of inosine per day was orally administered to mice from day 4 to day 21.
(§1) All the cell lines were confirmed to be mycoplasma free. Cells were cultured using DMEM (Corning) with 10% fetal bovine serum (Corning) and 1% Pen/Strep (Life Technologies). Cells were incubated in an incubator maintained at 37° C. and 5% CO2. 75-80% of confluent cells were harvested for orthotopic injection.
(§2) For the melanoma model, 2×10^5 B16 or B16-GM cells were harvested for orthotopic injection into the subcutaneous (s.c.) of C57BL/6J mice (6-8 weeks) using 0.25% Trypsin (Corning) and suspended in DPBS (Gibco).
(§3) Treatments were given as single agents or in combination with the following regimen. Inosine (Sigma-Aldrich) was dissolved in sterilized water to yield a concentration of 40 mg/ml, and administered by oral gavage once a day at 400 mg/kg body weight. Treatment was initiated on day 4 and ended on day 21 post tumor implant. Control groups received vehicle (water) by oral gavage. […] Tumors were measured every third day with a caliper, and measurements were assessed manually by assessing the longest dimension (length) and the longest perpendicular dimension (width). […]

[5] = test system: MHC-I (H2kb) on B16 cells; assay: Flow cytometry of membrane MHC-I (H2kb) expression; type: cell-based, murine; settings: inosine at 500
Method: B16 cells were stained for flow cytometry to determine the membrane MHC-I expression level.
For MHC-I expression flow analysis on the tumor cell, one million cells per condition were stained with the PE anti-mouse H-2Kb antibody (Biolegend) diluted in PBS plus 2% FBS and kept for 30 min on ice. Matched isotype control Ab was performed as a control.

B16 tumor cells [6] = assay: Cell apoptosis assay (Annexin V / 7-AAD flow cytometry); type: cell-based, murine; settings: B16 cells in vitro; inosine same concentrations as FIG. 2A; 48 h
Method: Tumor cells were seeded in a 6-well plate and grown for 24 h. Cells were then treated with control (vehicle) or 1, 10, 50, 100 μM inosine. After 48 h of treatment, cells were harvested by trypsinization, resuspended at 10^6 cells/ml in 1× Annexin V Binding Buffer (BD Biosciences), and 100 μl (10^5 cells) were added to each FACS tube. Cells were stained with 7-AAD (5 μl/100 μl, BD Biosciences, to assess cell death), and APC-conjugated Annexin V (5 μl/100 μl, BD Biosciences, to assess apoptosis) for 30 min and analyzed by BD FACSCanto II. FACS data were acquired using FACSDiva (BD Biosciences) and analyzed using FlowJo software (Tree Star) and the percentage of APC^+ cells obtained.

B16 tumors = assay: B16 melanoma tumor model in mice (tumor volume, survival); settings: B16 tumor-bearing C57BL/6 mice; inosine 400 mg/kg/day oral from day 4; anti-CTLA4 100 μg + anti-PD-1 200 μg i.p. days 7, 10, 13, 16
Method: B16 cells were injected subcutaneously into eight-week-old female C57BL/6 mice (2×10^5/mouse). Anti-CTLA4 antibody (100 μg per mouse) and anti-PD-1 antibody (200 μg per mouse) were injected i.p on days 7, 10, 13 and 16. 400 mg/kg body weight of inosine per day was orally administered to mice from day 4.
as §1, §2, §3

OC[C@H]1O[C@@H](n2cnc3c(O)ncnc32)[C@H](O)[C@@H]1O [inosine, 9-[(2R,3R,4S,5R)-3,4-dihydroxy-5-(hydroxymethyl)oxolan-2-yl]-1H-purin-6-one]
relative mRNA expression of antigen presentation-related genes (H2k1, H2d1) and IFN signaling genes (Stat1, Stat3, Irf1) [1]: stimulates interferon signaling and antigen presentation-related genes; also recorded: increases the expression of antigen presentation-related genes and IFN signaling genes
tumor volume / tumor growth (4T1 tumors): does not significantly affect tumor growth
half-life [2]: approximately 15 h
proliferation / cell viability (MTT) (B16 tumor cells [3]): didn't inhibit tumor cell proliferation; also recorded: doesn't inhibit the proliferation
CD8+ T cell population in tumors [4]: increased the cytotoxic CD8^+ T infiltration
tumor volume / tumor growth (B16-GM tumors; B16-GM tumor-bearing C57BL/6 mice, inosine 400 mg/kg/day oral day 4 to 21, anti-CTLA4 100 μg + anti-PD-1 200 μg i.p. days 7, 10, 13, 16): reduced tumor size
lung metastasis (metastatic nodules) (B16-GM tumors; B16-GM tumor-bearing mice, day 18): significant reduction in lung metastasis
membrane MHC-I (H2kb) expression [5]: enhances the expression of MHC-I; also recorded: increases the membrane protein level of MHC-I
apoptotic tumor cells (B16 tumor cells [6]): didn't inhibit tumor cell proliferation and promote apoptosis; also recorded: doesn't induce the apoptosis
tumor volume / tumor growth (B16 tumors): inhibited tumor growth in vivo; also recorded: enhanced the antitumor efficacy of ICB
